Measured values reported in patent US20260256807A1, “SUBSTITUTED PYRAZOLES AND IMIDAZOLES AS OREXIN RECEPTOR ANTAGONISTS COMPOSITION, METHODS FOR TREATING NEUROLOGICAL AND PSYCHOLOGICAL DISORDERS” (HAGER BIOSCIENCES, LLC, priority 2022, published 2026).

How the values were obtained:
[1] = biological target: T1, human orexin-1 receptor (Homo sapiens, UniProt O43613); assay: Intracellular calcium (FLIPR) antagonist assay, CHO cells expressing human orexin-1 receptor, 3 nM orexin-A; assay type: cell-based; conditions: 1 uM compound, orexin-A 3 nM; for inhibition at 1 µM: CHO, read-out: OXIR % Inh. @ 1 uM
T1 construct: expressed in transfected cells; host or cells: CHO cells (G418 selection)
T1 sequence (O43613 1-425): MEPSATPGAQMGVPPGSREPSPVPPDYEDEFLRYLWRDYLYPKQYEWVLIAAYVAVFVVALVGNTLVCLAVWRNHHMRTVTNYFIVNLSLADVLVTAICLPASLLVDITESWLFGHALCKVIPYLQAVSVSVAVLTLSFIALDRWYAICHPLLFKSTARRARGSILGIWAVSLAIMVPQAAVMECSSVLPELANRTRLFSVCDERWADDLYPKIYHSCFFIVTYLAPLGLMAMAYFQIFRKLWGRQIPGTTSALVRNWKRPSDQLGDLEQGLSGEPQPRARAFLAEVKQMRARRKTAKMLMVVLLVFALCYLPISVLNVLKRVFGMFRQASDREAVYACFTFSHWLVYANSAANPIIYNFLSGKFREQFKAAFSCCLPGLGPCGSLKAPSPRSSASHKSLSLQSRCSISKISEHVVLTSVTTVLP
Protocol: (§1) Antagonistic activities on both orexin receptors (i.e., to identify Orexin Receptor Antagonists) have been measured for each example compound using the in vitro assays (intracellular calcium measurements) as described herein. Other assays may also be used to identify Orexin Receptor Antagonists as would be understood by those of ordinary skill in the art. Chinese hamster ovary (CHO) cells expressing the human orexin-1 receptor and the human orexin-2 receptor, respectively, are grown in culture medium (Ham F-12 with L-Glutamine) containing 300 μg/mL G418, 100 U/mL penicillin, 100 μg/mL streptomycin and 10% heat inactivated fetal calf serum (FCS). The cells are seeded at 20′000 cells/well into 384-well black clear bottom sterile plates (Greiner). The seeded plates are incubated overnight at 37° C. in 5% CO2. Human orexin-A as an agonist is prepared as 1 mM stock solution in MeOH: water (1:1), diluted in HBSS containing 0.1% bovine serum albumin (BSA), NaHC03: 0.375 g/L and 20 mM HEPES for use in the assay at a final concentration of 3 nM.
(§2) Antagonists were prepared as 10 mM stock solution in DMSO, then diluted in 384-well plates using DMSO followed by a transfer of the dilutions into in HBSS containing 0.1% bovine serum albumin (BSA), NaHC03: 0.375 g/L and 20 mM HEPES. On the day of the assay, 50 μL of staining buffer (HBSS containing 1% FCS, 20 mM HEPES, NaHC03: 0.375 g/L, 5 mM probenecid (Sigma) and 3 μM of the fluorescent calcium indicator fluro-4 AM (1 mM stock solution in DMSO, containing 10% pluronic) is added to each well. The 384-well cell-plates are incubated for 50 min at 37° C. in 5% C02 followed by equilibration at RT for 30 min before measurement. Within the Fluorescent Imaging Plate Reader (FLIPR Tetra, Molecular Devices), potential Orexin Receptor Antagonists were added to the plate in a volume of 10 μl/well, incubated for 120 min and finally 10 μL/well of agonist is added. Fluorescence was measured for each well at 1 second intervals, and the height of each fluorescence peak compared to the height of the fluorescence peak induced by 3 nM orexin-A with vehicle in place of antagonist. The IC50 value (the concentration of compound needed to inhibit 50% of the agonistic response) was determined and normalized using the obtained IC50 value of an on-plate reference compound. Optimized conditions were achieved by adjustment of pipetting speed and cell splitting regime. The calculated IC50 values fluctuate depending on the daily cellular assay performance, as is known to those skilled in the art. In the case where IC50 values have been determined several times for the same compound, the geometric mean has been given.

[2] = biological target: T2, human orexin-2 receptor (Homo sapiens, UniProt O43614); assay: Intracellular calcium (FLIPR) antagonist assay, CHO cells expressing human orexin-2 receptor, 3 nM orexin-A; assay type: cell-based; conditions: 1 uM compound, orexin-A 3 nM; for inhibition at 1 µM: CHO, read-out: OX2R % Inh. @ 1uM
T2 construct: expressed in transfected cells; host or cells: CHO cells (G418 selection)
T2 sequence (O43614 1-444): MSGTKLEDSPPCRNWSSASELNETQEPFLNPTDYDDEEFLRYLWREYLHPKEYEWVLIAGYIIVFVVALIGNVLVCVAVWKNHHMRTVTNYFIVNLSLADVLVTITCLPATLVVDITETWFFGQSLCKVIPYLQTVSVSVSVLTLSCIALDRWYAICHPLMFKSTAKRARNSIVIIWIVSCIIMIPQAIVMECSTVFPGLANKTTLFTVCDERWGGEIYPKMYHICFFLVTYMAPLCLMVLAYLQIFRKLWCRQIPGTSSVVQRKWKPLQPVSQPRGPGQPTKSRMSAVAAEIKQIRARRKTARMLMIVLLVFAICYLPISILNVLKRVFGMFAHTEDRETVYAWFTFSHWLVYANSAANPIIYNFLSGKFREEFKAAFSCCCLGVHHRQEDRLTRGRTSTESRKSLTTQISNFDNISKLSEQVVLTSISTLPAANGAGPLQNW
Protocol: as §1, §2

OXIR % Inh. @ 1 uM [1] [%]	inhibition at 1 µM [2] [%]	inhibition at 1 µM [1] [%]	OX2R % Inh. @ 1uM [2] [%]	SMILES
76	47	–	–	COc1ccc(N2CC[C@@H](C)N(C(=O)c3c(-c4ccccn4)nn4ccccc34)CC2)nc1 [Example 81]
–	2	39	–	C[C@@H]1CCN(c2cnc(C(F)(F)F)cn2)CCN1C(=O)c1nn2c(c1-c1ccccc1)COCC2 [Example 82]
–	27	69	–	C[C@@H]1CCN(c2cnc(C(F)(F)F)cn2)CCN1C(=O)c1nc2ccccn2c1-c1ccccc1 [Example 83]
–	27	71	–	C[C@@H]1CCN(c2cnc(C(F)(F)F)cn2)CCN1C(=O)c1nn2c(c1-c1ccccc1)OCCC2 [Example 84]
–	52	93	–	C[C@@H]1CCN(c2cnc(C(F)(F)F)cn2)CCN1C(=O)c1nn2cccnc2c1-c1ccccc1 [Example 85]
–	63	89	–	C[C@@H]1CCN(c2cnc(C(F)(F)F)cn2)CCN1C(=O)c1nn2ccccc2c1-c1ccccc1 [Example 86]
–	57	83	–	C[C@@H]1CCN(c2cnc(C(F)(F)F)cn2)CCN1C(=O)c1c(-c2ccccn2)nn2ccccc12 [Example 87]
–	29	51	–	C[C@@H]1CCN(c2cnc(C(F)(F)F)cn2)CCN1C(=O)c1c(-c2ncccn2)nn2ccccc12 [Example 88]
–	10	25	–	C[C@@H]1CCN(c2cnc(C(F)(F)F)cn2)CCN1C(=O)c1c(-c2ccccc2)nn2c1COCC2 [Example 89]
–	80	95	–	C[C@@H]1CCN(c2cnc(C(F)(F)F)cn2)CCN1C(=O)c1c(-c2ccccc2)nn2ccccc12 [Example 90]
–	74	87	–	C[C@@H]1CN(c2cnc(C(F)(F)F)cn2)CCCN1C(=O)c1c(-c2ccccc2)nn2cccnc12 [Example 91]
–	13	25	–	COc1ccc(N2CC[C@@H](C)N(C(=O)c3c(-c4ncccn4)nn4ccccc34)CC2)nc1 [Example 92]
36	–	–	33	COc1ccc(N2CC[C@@H](C)N(C(=O)c3c(-c4ccccn4)nn4ccccc34)CC2)nc1 [Example 93]
43	–	–	21	C[C@@H]1CCN(c2cnc(C(F)(F)F)cn2)CCN1C(=O)c1c(-c2ncccn2)nn2ccccc12 [Example 94]
86	–	–	61	C[C@@H]1CCN(c2cnc(C(F)(F)F)cn2)CCN1C(=O)c1c(-c2ccccn2)nn2ccccc12 [Example 95]
–	71	100	–	C[C@@H]1CCN(c2nc3cc(Cl)ccc3o2)CCN1C(=O)c1nn2cccnc2c1-c1ccccn1 [Example 96]
–	51	98	–	C[C@@H]1CCN(c2ccc(C(F)(F)F)cn2)CCN1C(=O)c1nn2cccnc2c1-c1ccccn1 [Example 97]
–	26	57	–	C[C@@H]1CCN(c2cnc(C(F)(F)F)cn2)CCN1C(=O)c1nn2cccnc2c1-c1ccccn1 [Example 98]
–	56	45	–	Cc1cc(C)nc(N2CC[C@@H](C)N(C(=O)c3nn4cccnc4c3-c3ccccn3)CC2)n1 [Example 99]
–	57	54	–	C[C@@H]1CCN(c2nc3cc(Cl)ccc3o2)CCN1C(=O)c1ccnn1-c1ccccc1 [Example 100]
–	32	19	–	C[C@@H]1CCN(c2ccc(C(F)(F)F)cn2)CCN1C(=O)c1ccnn1-c1ccccc1 [Example 101]
